≈ marks a conversion by molar mass, not a printed value. Calls of active or inactive are those of the source. The calls are words filed in the database; no cut-off is given here.
How the values were obtained:
Leishmania donovani [1] = assay: Antileishmanial activity against Leishmania donovani at 40 ug/mL after 72 hrs by alamar blue assay; assay type: functional, organism-based
[2] = molecular target: T1, Acetylcholinesterase (Bos taurus) (UniProt P23795); assay: Inhibition of bovine AChE
T1 sequence (whole entry): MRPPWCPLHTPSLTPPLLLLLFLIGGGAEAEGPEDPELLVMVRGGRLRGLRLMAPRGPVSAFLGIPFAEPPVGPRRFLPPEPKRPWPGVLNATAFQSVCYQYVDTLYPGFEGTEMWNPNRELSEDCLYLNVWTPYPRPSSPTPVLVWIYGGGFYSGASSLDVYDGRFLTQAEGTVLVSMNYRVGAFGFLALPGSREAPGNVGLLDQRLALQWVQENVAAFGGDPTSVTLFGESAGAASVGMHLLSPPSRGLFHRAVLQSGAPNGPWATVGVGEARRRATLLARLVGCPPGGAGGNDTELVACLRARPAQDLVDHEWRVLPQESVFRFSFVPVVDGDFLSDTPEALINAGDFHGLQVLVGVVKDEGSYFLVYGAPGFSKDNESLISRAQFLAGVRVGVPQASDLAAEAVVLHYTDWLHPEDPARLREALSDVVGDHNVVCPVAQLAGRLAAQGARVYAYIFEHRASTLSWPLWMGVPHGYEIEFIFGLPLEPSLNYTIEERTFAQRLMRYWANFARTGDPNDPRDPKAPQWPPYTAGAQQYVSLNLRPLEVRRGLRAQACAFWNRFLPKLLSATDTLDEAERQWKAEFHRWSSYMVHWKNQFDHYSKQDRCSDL

[3] = tested on: Human immunodeficiency virus 1; assay: Antiviral activity against HIV1 3B assessed as reverse transcriptase activity by enzyme immunoassay; assay type: functional, organism-based; details: Human immunodeficiency virus 1, 3B
Staphylococcus aureus [4] = assay: Antibacterial activity against Staphylococcus aureus; assay type: functional, organism-based
Plasmodium falciparum [5] = assay: Antimalarial activity after 72 hrs against chloroquine-resistant Plasmodium falciparum W2 in erythrocytes by LDH reporter assay; assay type: functional, organism-based; details: W2, 72 h
[6] = molecular target: Beta-secretase 1 (Homo sapiens) (UniProt P56817); assay: Inhibition of human recombinant BACE1 by FRET-based assay
[7] = tested on: Mycobacterium tuberculosis; assay: Antituberculosis activity against Mycobacterium tuberculosis H37Rv after 24 hrs by alamar blue assay; assay type: functional
[8] = tested on: Mycobacterium intracellulare; assay: Antibacterial activity against Mycobacterium intracellular by alamar blue assay; assay type: functional, organism-based
Staphylococcus aureus [9] = assay: Antibacterial activity against methicillin-resistant Staphylococcus aureus; assay type: functional, organism-based
Vero [10] = assay: Cytotoxicity against african green monkey Vero cells at 4.76 ug/mL by neutral red assay; assay type: cell-based; details: chlorocebus sabaeus
Plasmodium falciparum [11] = assay: Antimalarial activity after 72 hrs against chloroquine-sensitive Plasmodium falciparum D6 in erythrocytes by LDH reporter assay; assay type: functional, organism-based; details: D6, 72 h
Cryptococcus neoformans = assay: Antifungal activity against Cryptococcus neoformans; assay type: functional, organism-based
Plasmodium falciparum [12] = assay: Antimalarial activity after 72 hrs against chloroquine-resistant Plasmodium falciparum W2 in erythrocytes at […] by LDH reporter assay; assay type: functional, organism-based
Plasmodium falciparum [13] = assay: Antimalarial activity after 72 hrs against chloroquine-sensitive Plasmodium falciparum D6 in erythrocytes at […] by LDH reporter assay; assay type: functional, organism-based
Leishmania donovani [14] = assay: Antileishmanial activity against Leishmania donovani after 72 hrs by alamar blue assay; assay type: functional, organism-based
[15] = tested on: Voltage-gated calcium channel; assay: Blocking of calcium channel in human SH-SY5Y cells assessed as inhibition of KCL depolarization-induced cytosolic calcium increase at 1 uM; assay type: cell-based
[16] = molecular target: Glycogen synthase kinase-3 beta (Homo sapiens) (UniProt P49841); assay: Inhibition of GSK3-beta in human SH-SY5Y cells assessed as inhibition of tau phosphorylation at Ser396 at 5 uM after 24 hrs by ELISA sandwich method; assay type: cell-based
SH-SY5Y = assay: Cytotoxicity against human SH-SY5Y cells at 5 uM; assay type: cell-based
Vero [17] = assay: Cytotoxicity against african green monkey Vero cells by neutral red assay; assay type: cell-based; details: chlorocebus sabaeus
[18] = molecular target: Glycogen synthase kinase-3 beta (Homo sapiens) (UniProt P49841); assay: Inhibition of human recombinant GSK3-beta assessed as incorporation of [33P]gammaATP into G2S peptide at 25 uM

Sequence of Glycogen synthase kinase-3 beta (Homo sapiens) (P49841 whole entry, looked up): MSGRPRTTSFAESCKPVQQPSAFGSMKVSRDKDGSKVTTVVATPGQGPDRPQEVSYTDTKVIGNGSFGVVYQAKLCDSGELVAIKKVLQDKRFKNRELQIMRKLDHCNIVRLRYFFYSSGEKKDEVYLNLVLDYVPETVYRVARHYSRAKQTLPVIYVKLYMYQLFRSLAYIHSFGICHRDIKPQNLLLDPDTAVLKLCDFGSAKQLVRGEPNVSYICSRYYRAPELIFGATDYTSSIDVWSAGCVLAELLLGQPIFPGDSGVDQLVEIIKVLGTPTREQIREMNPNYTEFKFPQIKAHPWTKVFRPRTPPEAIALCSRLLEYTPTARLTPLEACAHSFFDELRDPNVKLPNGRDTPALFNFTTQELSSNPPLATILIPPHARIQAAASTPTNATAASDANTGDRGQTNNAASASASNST
Sequence of Beta-secretase 1 (Homo sapiens) (P56817 whole entry): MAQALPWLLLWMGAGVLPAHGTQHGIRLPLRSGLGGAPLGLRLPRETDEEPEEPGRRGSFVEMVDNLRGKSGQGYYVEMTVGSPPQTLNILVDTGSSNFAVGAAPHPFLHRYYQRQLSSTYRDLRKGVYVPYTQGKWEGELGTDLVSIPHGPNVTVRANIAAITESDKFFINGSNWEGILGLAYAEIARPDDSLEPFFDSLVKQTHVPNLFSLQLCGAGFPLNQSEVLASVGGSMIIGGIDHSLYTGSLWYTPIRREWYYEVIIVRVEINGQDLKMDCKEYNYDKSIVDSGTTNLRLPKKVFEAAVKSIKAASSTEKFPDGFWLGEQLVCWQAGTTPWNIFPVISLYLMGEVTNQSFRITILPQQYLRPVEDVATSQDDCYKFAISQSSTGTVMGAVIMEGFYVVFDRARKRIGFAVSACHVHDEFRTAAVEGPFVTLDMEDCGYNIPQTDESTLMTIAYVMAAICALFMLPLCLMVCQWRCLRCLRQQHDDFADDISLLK

`O=C1CCCN2[C@H]3[C@]45CN6CCCC/C=C\CC[C@]3(C=C(c3nccc7c3[nH]c3c(O)cccc37)[C@H]4CC6)O[C@]2(CC1)C5` was tested, and the Activity (Leishmania donovani [1]) was “inactive”, the Activity [2] was “inactive” and the IC50 [3] was 14.9 µg/mL (≈ 25.7 µM). The Activity (Staphylococcus aureus [4]) was “inactive”, the IC50 (Plasmodium falciparum [5]) was 1.1 µg/mL (≈ 1.9 µM) and the Activity [6] was “inactive”. The MIC [7] was 12.5 µg/mL (≈ 21.6 µM), the Activity [8] was “inactive” and the Activity (Staphylococcus aureus [9]) was “inactive”. The Activity (Vero [10]) was “Non-toxic”, the IC50 (Plasmodium falciparum [11]) was 0.84 µg/mL (≈ 1.45 µM) and the Activity (Cryptococcus neoformans) was “inactive”.

With `Oc1cccc2c3cc[nH]c(C4=C[C@]56CC/C=C\CCCCN7CC[C@@H]4[C@]4(C[C@@H]8/C=C\CCC[C@@H](O5)N8[C@H]46)C7)c-3nc12` [12,28-OXA-8-HYDROXY-MANZAMINE A] the Activity [2] was “inactive”, the Activity (Staphylococcus aureus [4]) was “inactive” and the Activity [6] was “inactive”. For the same compound, the Activity (Plasmodium falciparum [12]) was “inactive”, the Activity [8] was “inactive” and the Activity (Staphylococcus aureus [9]) was “inactive”. For the same compound, the Activity (Vero [10]) was “Non-toxic”, the Activity (Plasmodium falciparum [13]) was “inactive” and the Activity (Cryptococcus neoformans) was “inactive”.

`C[C@@H]1[C@H](O)[C@@H](C)/C=C/C=C/C=C/C=C/C=C/C=C/C=C/[C@H](O[C@@H]2O[C@H](C)[C@@H](O)[C@H](N)[C@@H]2O)C[C@@H]2O[C@](O)(C[C@@H](O)C[C@@H](O)[C@H](O)CC[C@@H](O)C[C@@H](O)CC(=O)O[C@H]1C)C[C@H](O)[C@H]2C(=O)O` [AMPHOTERICIN B] was tested, and the IC50 (Leishmania donovani [14]) was 0.06 µg/mL (≈ 0.0649 µM), the IC90 (Leishmania donovani [14]) was 0.15 µg/mL (≈ 0.162 µM) and the IC50 (Cryptococcus neoformans) was 0.15 µg/mL (≈ 0.162 µM).

`Oc1cccc2c1[nH]c1c([C@H]3[C@@H]4CCN5CCCC/C=C\CC[C@@]6(O[C@@H]36)[C@@H]3NCCCC/C=C\CC[C@@]34C5)nccc12` was tested, and the Activity [2] was “inactive” and the Activity [6] was “inactive”.

For `Oc1cccc2c1[nH]c1c(C3=C[C@@]4(O)CC/C=C\CCCCN5CC[C@@H]3[C@]3(CC6/C=C\CCCCN6[C@H]34)C5)nccc12` (stereo not given in full), the “inhibition (INH)” value [15] was 20%, the Activity [2] was “inactive” and the IC50 [3] was 0.59 µg/mL (≈ 1.04 µM). The IC50 (Staphylococcus aureus [4]) was 0.9 µg/mL (≈ 1.59 µM), the IC50 (Plasmodium falciparum [5]) was 0.008 µg/mL (≈ 0.0142 µM) and the Activity [16] was “Active”. For the same compound, the IC50 (Leishmania donovani [14]) was 6.2 µg/mL (≈ 11 µM), the IC90 (Leishmania donovani [14]) was 11 µg/mL (≈ 19.5 µM) and the Activity (SH-SY5Y) was “Non-toxic”. The Activity [6] was “inactive”, the MIC [7] was 0.9 µg/mL (≈ 1.59 µM) and the IC50 [8] was 1 µg/mL (≈ 1.77 µM). It also gave an IC50 (Vero [17]) of 1.1 µg/mL (≈ 1.95 µM), an IC50 (Staphylococcus aureus [9]) of 4 µg/mL (≈ 7.08 µM) and an IC50 (Plasmodium falciparum [11]) of 0.006 µg/mL (≈ 0.0106 µM). It also gave an IC50 (Cryptococcus neoformans) of 3 µg/mL (≈ 5.31 µM) and an inhibition [18] of 86.7%.

`O=C(O)c1cn(C2CC2)c2cc(N3CCNCC3)c(F)cc2c1=O` [CIPROFLOXACIN] gave an IC50 [8] of 0.25 µg/mL (≈ 0.754 µM).

With `N=C(N)c1ccc(OCCCCCOc2ccc(C(=N)N)cc2)cc1` [PENTAMIDINE] the IC50 (Leishmania donovani [14]) was 2.1 µg/mL (≈ 6.17 µM) and the IC90 (Leishmania donovani [14]) was 10 µg/mL (≈ 29.4 µM).

`C[C@@H]1CC[C@H]2[C@@H](C)C(=O)O[C@@H]3O[C@@]4(C)CC[C@@H]1[C@]32OO4` [ARTEMISININ] gave an IC50 (Plasmodium falciparum [5]) of 0.0063 µg/mL (≈ 0.0223 µM) and an IC50 (Plasmodium falciparum [11]) of 0.01 µg/mL (≈ 0.0354 µM).

`Cc1cn([C@H]2C[C@H](N=[N+]=[N-])[C@@H](CO)O2)c(=O)[nH]c1=O` [ZIDOVUDINE] showed an IC50 [3] of 0.004 µg/mL (≈ 0.015 µM).

Work on `O=CC1=C[C@@]2(O)CC/C=C\CCCCN3CC[C@@H]1[C@]1(C[C@@H]4/C=C\CCCCN4[C@H]12)C3` yielded an inhibition [18] of 0%.
